Results on one molecule are retold here after BindingDB's records for patent US20240174647 (Neuron23, 2024).

Molecules are shown by their SMILES.

The IC50 is the concentration that gives 50% inhibition.

The target of this assay is Leucine-rich repeat serine/threonine-protein kinase 2 (Homo sapiens, UniProt Q5S007). Kind of assay: Biochemical Assay. As for the experimental part:
The protocol for basic TR-FRET LanthaScreen Tb Kinase Activity Assay inhibitor studies were as follows. LanthaScreen Kinase Activity Assays (ThermoFisher/USA) to evaluate inhibitors were performed by addition of 100 nL of test compound in corresponding DMSO dilutions/5 μL of kinase/fluorescein-ERM(LRRKtide) peptide mixture, 5 μL of ATP into 384 well small volume plates. After incubation for 120 minutes at room temperature, the detection reagents containing Tb-anti-pLRRKtide antibody were added to monitor phosphrylation level of peptide. Then, after 60 min minutes incubation at room temperature plates were read in Envision. Data analysis of emission ratios was according to LanthaScreen Tb Kinase Activity Assay protocol.Kinase and assay components were adjusted to final concentrations according to the kit protocol. For LRRK2: 2 nM wt human LRRK2, catalytic site, catalytic site (ThermoFisher/USA), 400 nM peptide, 38 μM ATP in 1× Kinase Buffer A.Basic protocol for TR-FRET LanthaScreen Tb Kinase Activity Assay inhibitor studies involved two steps:Enzymatic step: Addition of 100 nL of test compound in corresponding DMSO dilutions, 5 μL of kinase/substrate mixture, 5 μL of ATP into 384 well small volume plates. Incubation for 120 minutes at room temperature.Detection step: Addition of 10 μL EDTA & antibody, read plate after 60 minutes. […]

Sequence of Leucine-rich repeat serine/threonine-protein kinase 2 (Q5S007 whole entry): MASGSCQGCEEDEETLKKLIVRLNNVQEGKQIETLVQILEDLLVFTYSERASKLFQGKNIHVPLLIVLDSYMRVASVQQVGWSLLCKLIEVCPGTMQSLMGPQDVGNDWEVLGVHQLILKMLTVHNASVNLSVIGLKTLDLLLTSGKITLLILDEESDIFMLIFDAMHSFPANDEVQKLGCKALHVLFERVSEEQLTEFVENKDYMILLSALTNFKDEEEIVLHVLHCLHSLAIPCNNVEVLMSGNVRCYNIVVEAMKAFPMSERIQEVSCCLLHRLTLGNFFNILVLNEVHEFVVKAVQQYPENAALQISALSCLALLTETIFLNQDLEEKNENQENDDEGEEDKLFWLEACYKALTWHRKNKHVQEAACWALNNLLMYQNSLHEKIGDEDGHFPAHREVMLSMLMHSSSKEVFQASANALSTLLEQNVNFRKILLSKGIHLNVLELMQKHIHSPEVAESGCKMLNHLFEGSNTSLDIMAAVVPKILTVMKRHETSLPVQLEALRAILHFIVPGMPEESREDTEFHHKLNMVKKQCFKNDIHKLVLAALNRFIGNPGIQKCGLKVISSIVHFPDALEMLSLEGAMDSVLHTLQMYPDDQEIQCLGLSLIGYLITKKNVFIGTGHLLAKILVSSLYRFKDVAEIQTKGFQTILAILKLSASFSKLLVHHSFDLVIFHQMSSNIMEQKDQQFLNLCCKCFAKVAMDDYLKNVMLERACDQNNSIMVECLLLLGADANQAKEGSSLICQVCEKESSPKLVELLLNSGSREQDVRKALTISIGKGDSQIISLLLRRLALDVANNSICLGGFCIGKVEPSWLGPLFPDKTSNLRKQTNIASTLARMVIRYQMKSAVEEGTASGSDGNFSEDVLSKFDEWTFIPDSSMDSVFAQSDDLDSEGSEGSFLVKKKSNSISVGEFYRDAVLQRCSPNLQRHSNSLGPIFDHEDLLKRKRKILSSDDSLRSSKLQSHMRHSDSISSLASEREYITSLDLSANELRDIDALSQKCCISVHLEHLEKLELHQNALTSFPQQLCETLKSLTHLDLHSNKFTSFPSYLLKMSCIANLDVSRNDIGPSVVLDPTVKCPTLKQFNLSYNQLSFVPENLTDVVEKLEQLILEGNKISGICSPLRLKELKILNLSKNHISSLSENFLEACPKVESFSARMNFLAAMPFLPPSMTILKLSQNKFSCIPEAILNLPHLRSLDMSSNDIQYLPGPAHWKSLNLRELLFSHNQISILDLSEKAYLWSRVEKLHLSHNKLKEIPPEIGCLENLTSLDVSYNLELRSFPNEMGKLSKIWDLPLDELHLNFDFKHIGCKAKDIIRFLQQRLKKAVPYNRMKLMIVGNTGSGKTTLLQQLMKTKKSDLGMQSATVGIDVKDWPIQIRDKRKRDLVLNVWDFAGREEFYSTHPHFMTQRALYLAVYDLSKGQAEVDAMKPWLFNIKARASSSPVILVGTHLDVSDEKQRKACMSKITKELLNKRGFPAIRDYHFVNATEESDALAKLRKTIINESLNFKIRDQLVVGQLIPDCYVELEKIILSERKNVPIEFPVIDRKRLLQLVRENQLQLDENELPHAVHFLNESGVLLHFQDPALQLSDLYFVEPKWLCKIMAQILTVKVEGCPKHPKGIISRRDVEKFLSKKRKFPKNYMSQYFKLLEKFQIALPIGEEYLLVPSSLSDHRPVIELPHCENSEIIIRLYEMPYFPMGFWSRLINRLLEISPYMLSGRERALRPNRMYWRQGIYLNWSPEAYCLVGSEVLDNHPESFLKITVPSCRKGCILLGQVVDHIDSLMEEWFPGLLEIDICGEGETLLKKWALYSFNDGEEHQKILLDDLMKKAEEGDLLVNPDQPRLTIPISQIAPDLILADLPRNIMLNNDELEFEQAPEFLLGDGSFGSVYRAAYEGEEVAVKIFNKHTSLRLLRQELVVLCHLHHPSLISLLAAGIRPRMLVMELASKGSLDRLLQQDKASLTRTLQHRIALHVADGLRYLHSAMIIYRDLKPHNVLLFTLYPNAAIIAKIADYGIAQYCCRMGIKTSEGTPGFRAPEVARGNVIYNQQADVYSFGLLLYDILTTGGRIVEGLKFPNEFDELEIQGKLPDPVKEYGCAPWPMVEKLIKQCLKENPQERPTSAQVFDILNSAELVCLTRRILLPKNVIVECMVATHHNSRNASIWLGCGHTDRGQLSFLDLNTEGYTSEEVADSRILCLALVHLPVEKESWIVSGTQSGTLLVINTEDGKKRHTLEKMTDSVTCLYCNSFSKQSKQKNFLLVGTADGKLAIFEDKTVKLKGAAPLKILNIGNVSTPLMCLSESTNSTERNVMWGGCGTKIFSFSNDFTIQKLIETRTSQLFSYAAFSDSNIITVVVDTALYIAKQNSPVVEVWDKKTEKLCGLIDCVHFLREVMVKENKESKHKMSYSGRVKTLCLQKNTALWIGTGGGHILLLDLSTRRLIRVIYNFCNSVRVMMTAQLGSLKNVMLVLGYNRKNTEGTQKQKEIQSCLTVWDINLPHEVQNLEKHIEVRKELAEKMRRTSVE

In turn, `CNc1nc(Nc2ccc(F)c3[nH]ncc23)ncc1C(F)(F)F` [US20240174647, Example 27] showed a concentration for half-maximal inhibition (IC50) of under 50 nM.
